Data published in patent publication US6706740B2, “Fungicidal heterocyclic aromatic amides and their compositions, methods of use and preparation” (Dow AgroSciences LLC, priority 1999, dated 2004).

Columns and labels:
[1] = system: Magnaporthe grisea (Pyricularia oryzae—PYRIOR); experiment: microbe, parasite or virus in culture; type: cell-based; details: Pyricularia oryzae, read-out: PYRIOR in vitro Growth Inhibition
[2] = system: Rhizoctonia solani (RHIZSO); experiment: microbe, parasite or virus in culture; type: cell-based; details: Rhizoctonia solani, read-out: RHIZSO in vitro Growth Inhibition
[3] = system: Mycosphaerella graminicola (Septoria tritici—SEPTTR); experiment: In vitro fungal growth inhibition, Mycosphaerella graminicola (SEPTTR); type: cell-based; details: Zymoseptoria tritici; 25 ppm in the growth medium; read-out: SEPTTR in vitro Growth Inhibition
[4] = system: Stagonospora nodorum (Leptosphaeria nodorum—LEPTNO); experiment: In vitro fungal growth inhibition, Stagonospora nodorum (LEPTNO); type: cell-based; details: Leptosphaeria; 25 ppm in the growth medium; read-out: LEPTNO in vitro Growth Inhibition
Ustilago maydis (USTIMA) = experiment: microbe, parasite or virus in culture; type: cell-based; details: Mycosarcoma maydis, read-out: USTIMA in vitro Growth Inhibition
[5] = system: Phytophthora infestans (PHYTIN); experiment: microbe, parasite or virus in culture; type: cell-based; details: Phytophthora infestans, read-out: PHYTIN in vitro Growth Inhibition
[6] = system: Phytophthora infestans—PHYTIN; experiment: whole plant or invertebrate; type: in vivo; details: Phytophthora, in Solanum lycopersicum, 24 h, read-out: PHYTIN in vivo 1 Day Protectant
[7] = system: Puccinia recondita—PUCCRT; experiment: Brown Rust of Wheat, in vivo whole plant, 24 Hour Protectant; details: Puccinia; wheat plants sprayed at 100 ppm, inoculated after 24 hours; control of fungal infection vs untreated plants; read-out: PUCCRT in vivo 1 Day Protectant
Erysiphe graminis—ERYSGT = experiment: Powdery Mildew of Wheat, in vivo whole plant, 24 Hour Protectant; details: Erysiphe; wheat plants sprayed at 100 ppm, inoculated after 24 hours; control of fungal infection vs untreated plants; read-out: ERYSGT in vivo 1 Day Protectant
Septoria tritici—SEPTTR = experiment: Leaf Blotch of Wheat, in vivo whole plant, 24 Hour Protectant; details: Zymoseptoria tritici, 24 h, wheat plants sprayed at 100 ppm, inoculated after 24 hours; control of fungal infection vs untreated plants; read-out: SEPTTR in vivo 1 Day Protectant
[8] = system: Leptosphaeria nodorum—LEPTNO; experiment: Glume Blotch of Wheat, in vivo whole plant, 24 Hour Protectant; details: wheat plants sprayed at 100 ppm, inoculated after 24 hours, control of fungal infection vs untreated plants; for pest or weed control at 100 ppm: Leptosphaeria, read-out: LEPTNO in vivo 1 Day Protectant

O=C(Nc1ccc(Oc2ccccc2C(F)(F)F)cc1)c1nc(Br)ccc1O [Compound 497]
< 80%: inhibition at 25 ppm [1] | inhibition at 25 ppm [2] | inhibition at 25 ppm [3] | inhibition at 25 ppm [4] | inhibition at 25 ppm (Ustilago maydis (USTIMA)) | inhibition at 25 ppm [5]
< 25%: pest or weed control at 100 ppm [6] | pest or weed control at 100 ppm (Erysiphe graminis—ERYSGT)
25 to 74%: pest or weed control at 100 ppm [7] | pest or weed control at 100 ppm (Septoria tritici—SEPTTR) | pest or weed control at 100 ppm [8]

O=C(Nc1ccc(Oc2cccc(C(F)(F)F)c2)cc1)c1nc(Br)ccc1O [Compound 498]
25 to 74%: pest or weed control at 100 ppm [7] | pest or weed control at 100 ppm (Septoria tritici—SEPTTR)
< 80%: inhibition at 25 ppm [1] | inhibition at 25 ppm [2] | inhibition at 25 ppm [3] | inhibition at 25 ppm [4] | inhibition at 25 ppm (Ustilago maydis (USTIMA)) | inhibition at 25 ppm [5]
< 25%: pest or weed control at 100 ppm [6] | pest or weed control at 100 ppm (Erysiphe graminis—ERYSGT) | pest or weed control at 100 ppm [8]

O=C(Nc1ccc(Oc2ccc(C(F)(F)F)cc2)cc1)c1nc(Br)ccc1O [Compound 499]
< 80%: inhibition at 25 ppm [1] | inhibition at 25 ppm [2] | inhibition at 25 ppm [3] | inhibition at 25 ppm [4] | inhibition at 25 ppm (Ustilago maydis (USTIMA)) | inhibition at 25 ppm [5]
25 to 74%: pest or weed control at 100 ppm [7] | pest or weed control at 100 ppm [8]
< 25%: pest or weed control at 100 ppm [6] | pest or weed control at 100 ppm (Erysiphe graminis—ERYSGT) | pest or weed control at 100 ppm (Septoria tritici—SEPTTR)

N#Cc1ccc(Oc2cccc(NC(=O)c3nc(Br)ccc3O)c2)cc1 [Compound 500]
< 25%: pest or weed control at 100 ppm [6] | pest or weed control at 100 ppm [7] | pest or weed control at 100 ppm (Erysiphe graminis—ERYSGT) | pest or weed control at 100 ppm [8]
25 to 74%: pest or weed control at 100 ppm (Septoria tritici—SEPTTR)
< 80%: inhibition at 25 ppm [1] | inhibition at 25 ppm [2] | inhibition at 25 ppm [3] | inhibition at 25 ppm [4] | inhibition at 25 ppm (Ustilago maydis (USTIMA)) | inhibition at 25 ppm [5]

COc1cc(Br)nc(C(=O)N[C@H]2COC(=O)[C@H](Cc3ccccc3)[C@@H](OC(=O)C3CCCCC3)[C@H](C)OC2=O)c1O [Compound 501]
< 80%: inhibition at 25 ppm [2] | inhibition at 25 ppm [5]
< 25%: pest or weed control at 100 ppm [6] | pest or weed control at 100 ppm (Erysiphe graminis—ERYSGT) | pest or weed control at 100 ppm (Septoria tritici—SEPTTR)
> 80%: inhibition at 25 ppm [1] | inhibition at 25 ppm [3] | inhibition at 25 ppm [4] | inhibition at 25 ppm (Ustilago maydis (USTIMA))
25 to 74%: pest or weed control at 100 ppm [7] | pest or weed control at 100 ppm [8]

CC1(C)CC(NC(=O)c2ccncc2O)CC(C)(C)C1 [Compound 505]
< 25%: pest or weed control at 100 ppm [6] | pest or weed control at 100 ppm [7] | pest or weed control at 100 ppm (Erysiphe graminis—ERYSGT) | pest or weed control at 100 ppm (Septoria tritici—SEPTTR) | pest or weed control at 100 ppm [8]
< 80%: inhibition at 25 ppm [1] | inhibition at 25 ppm [2] | inhibition at 25 ppm [3] | inhibition at 25 ppm [4] | inhibition at 25 ppm (Ustilago maydis (USTIMA)) | inhibition at 25 ppm [5]

O=C(NCc1ccccc1)c1ccncc1O [Compound 506]
< 80%: inhibition at 25 ppm [1] | inhibition at 25 ppm [2] | inhibition at 25 ppm [3] | inhibition at 25 ppm [4] | inhibition at 25 ppm (Ustilago maydis (USTIMA)) | inhibition at 25 ppm [5]
< 25%: pest or weed control at 100 ppm [6] | pest or weed control at 100 ppm [7] | pest or weed control at 100 ppm (Erysiphe graminis—ERYSGT) | pest or weed control at 100 ppm (Septoria tritici—SEPTTR) | pest or weed control at 100 ppm [8]

O=C(NCc1ccc(Cl)cc1)c1ccncc1O [Compound 507]
< 80%: inhibition at 25 ppm [1] | inhibition at 25 ppm [2] | inhibition at 25 ppm [3] | inhibition at 25 ppm [4] | inhibition at 25 ppm (Ustilago maydis (USTIMA)) | inhibition at 25 ppm [5]
< 25%: pest or weed control at 100 ppm [6] | pest or weed control at 100 ppm [7] | pest or weed control at 100 ppm (Erysiphe graminis—ERYSGT) | pest or weed control at 100 ppm (Septoria tritici—SEPTTR) | pest or weed control at 100 ppm [8]

COc1ccc(C(C)NC(=O)c2ccncc2O)cc1 (stereo not drawn) [Compound 508]
< 25%: pest or weed control at 100 ppm [6] | pest or weed control at 100 ppm [7] | pest or weed control at 100 ppm (Erysiphe graminis—ERYSGT) | pest or weed control at 100 ppm (Septoria tritici—SEPTTR) | pest or weed control at 100 ppm [8]
< 80%: inhibition at 25 ppm [1] | inhibition at 25 ppm [2] | inhibition at 25 ppm [3] | inhibition at 25 ppm [4] | inhibition at 25 ppm (Ustilago maydis (USTIMA)) | inhibition at 25 ppm [5]

CC(NC(=O)c1ccncc1O)c1ccc(Cl)cc1 (stereo not drawn) [Compound 509]
< 25%: pest or weed control at 100 ppm [6] | pest or weed control at 100 ppm [7] | pest or weed control at 100 ppm (Erysiphe graminis—ERYSGT) | pest or weed control at 100 ppm (Septoria tritici—SEPTTR) | pest or weed control at 100 ppm [8]
< 80%: inhibition at 25 ppm [1] | inhibition at 25 ppm [2] | inhibition at 25 ppm [3] | inhibition at 25 ppm [4] | inhibition at 25 ppm (Ustilago maydis (USTIMA)) | inhibition at 25 ppm [5]

CC(NC(=O)c1ccncc1O)c1ccc(C(F)(F)F)cc1 (stereo not drawn) [Compound 510]
< 80%: inhibition at 25 ppm [1] | inhibition at 25 ppm [2] | inhibition at 25 ppm [3] | inhibition at 25 ppm [4] | inhibition at 25 ppm (Ustilago maydis (USTIMA)) | inhibition at 25 ppm [5]
25 to 74%: pest or weed control at 100 ppm [6]
< 25%: pest or weed control at 100 ppm [7] | pest or weed control at 100 ppm (Erysiphe graminis—ERYSGT) | pest or weed control at 100 ppm (Septoria tritici—SEPTTR) | pest or weed control at 100 ppm [8]

CC(NC(=O)c1ccncc1O)c1ccc(OC(F)(F)F)cc1 (stereo not drawn) [Compound 511]
< 25%: pest or weed control at 100 ppm [6] | pest or weed control at 100 ppm [7] | pest or weed control at 100 ppm (Erysiphe graminis—ERYSGT) | pest or weed control at 100 ppm (Septoria tritici—SEPTTR) | pest or weed control at 100 ppm [8]
< 80%: inhibition at 25 ppm [1] | inhibition at 25 ppm [2] | inhibition at 25 ppm [3] | inhibition at 25 ppm [4] | inhibition at 25 ppm (Ustilago maydis (USTIMA)) | inhibition at 25 ppm [5]

CC(NC(=O)c1ccncc1O)c1ccc(Oc2ccccc2)cc1 (stereo not drawn) [Compound 512]
< 25%: pest or weed control at 100 ppm [7] | pest or weed control at 100 ppm (Erysiphe graminis—ERYSGT) | pest or weed control at 100 ppm (Septoria tritici—SEPTTR) | pest or weed control at 100 ppm [8]
25 to 74%: pest or weed control at 100 ppm [6]
< 80%: inhibition at 25 ppm [1] | inhibition at 25 ppm [2] | inhibition at 25 ppm [3] | inhibition at 25 ppm [4] | inhibition at 25 ppm (Ustilago maydis (USTIMA)) | inhibition at 25 ppm [5]

Cc1cc(C)c(C(=O)N[C@H]2COC(=O)[C@H](Cc3ccccc3)[C@@H](OC(=O)C(C)C)[C@H](C)OC2=O)c(O)n1 [Compound 529]
< 25%: pest or weed control at 100 ppm [6] | pest or weed control at 100 ppm (Erysiphe graminis—ERYSGT)
< 80%: inhibition at 25 ppm [1] | inhibition at 25 ppm [2] | inhibition at 25 ppm [3] | inhibition at 25 ppm [4] | inhibition at 25 ppm (Ustilago maydis (USTIMA)) | inhibition at 25 ppm [5]
25 to 74%: pest or weed control at 100 ppm [7] | pest or weed control at 100 ppm (Septoria tritici—SEPTTR) | pest or weed control at 100 ppm [8]

CC(C)C(=O)O[C@H]1[C@H](C)OC(=O)[C@@H](NC(=O)c2nccnc2O)COC(=O)[C@@H]1Cc1ccccc1 [Compound 534]
+ +: LEPTNO in vivo 1 Day Protectant [8]
25 to 74%: pest or weed control at 100 ppm [7] | pest or weed control at 100 ppm (Septoria tritici—SEPTTR)
> 80%: inhibition at 25 ppm [1] | inhibition at 25 ppm [3] | inhibition at 25 ppm [4] | inhibition at 25 ppm [5]
< 25%: pest or weed control at 100 ppm [6] | pest or weed control at 100 ppm (Erysiphe graminis—ERYSGT)
< 80%: inhibition at 25 ppm [2] | inhibition at 25 ppm (Ustilago maydis (USTIMA))

CC(C)C(=O)O[C@H]1[C@H](C)OC(=O)[C@@H](NC(=O)c2nnc(O)nc2O)COC(=O)[C@@H]1Cc1ccccc1 [Compound 544]
< 25%: pest or weed control at 100 ppm [6] | pest or weed control at 100 ppm (Erysiphe graminis—ERYSGT)
25 to 74%: pest or weed control at 100 ppm [7] | pest or weed control at 100 ppm (Septoria tritici—SEPTTR) | pest or weed control at 100 ppm [8]
< 80%: inhibition at 25 ppm [1] | inhibition at 25 ppm [2] | inhibition at 25 ppm [3] | inhibition at 25 ppm [4] | inhibition at 25 ppm (Ustilago maydis (USTIMA)) | inhibition at 25 ppm [5]

CSc1nnc(C(=O)N[C@H]2COC(=O)[C@H](Cc3ccccc3)[C@@H](OC(=O)C(C)C)[C@H](C)OC2=O)c(O)n1 [Compound 547]
25 to 74%: pest or weed control at 100 ppm [6] | pest or weed control at 100 ppm [7] | pest or weed control at 100 ppm (Septoria tritici—SEPTTR)
< 80%: inhibition at 25 ppm [1] | inhibition at 25 ppm [2] | inhibition at 25 ppm [3] | inhibition at 25 ppm [4] | inhibition at 25 ppm (Ustilago maydis (USTIMA))
< 25%: pest or weed control at 100 ppm (Erysiphe graminis—ERYSGT) | pest or weed control at 100 ppm [8]
> 80%: inhibition at 25 ppm [5]

CC(C)C(=O)O[C@H]1[C@H](C)OC(=O)[C@@H](NC(=O)c2nscc2O)COC(=O)[C@@H]1Cc1ccccc1 [Compound 550]
< 80%: inhibition at 25 ppm [2] | inhibition at 25 ppm (Ustilago maydis (USTIMA))
+ +: LEPTNO in vivo 1 Day Protectant [8]
> 80%: inhibition at 25 ppm [1] | inhibition at 25 ppm [3] | inhibition at 25 ppm [4] | inhibition at 25 ppm [5]
25 to 74%: pest or weed control at 100 ppm [7] | pest or weed control at 100 ppm (Erysiphe graminis—ERYSGT) | pest or weed control at 100 ppm (Septoria tritici—SEPTTR)
< 25%: pest or weed control at 100 ppm [6]
